Results taken from US20110039763A1, “TARGETED ANTIMICROBIAL MOIETIES” (C3 JIAN, INC., priority 2009, published 2011).

How the values were obtained:
[1] = tested on: microorganisms; assay: Peptide activities: targeting/binding, antimicrobial, growth or phenotype altering (Tables 7, 8); type: cell-based; details: peptides having multiple activities
Source text: In certain embodiments, peptides described herein can have multiple activities. Thus for example, a peptide can have both binding/targeting activity and antimicrobial activity. Such peptides can be used, e.g., in a chimeric construct, for any or all of these properties. Thus, for example, a peptide designated “B” in Table 8 can be used as a targeting peptide. If it is also designated G or M it can also be used for antimicrobial activity.
Table 8. Peptides Having Multiple Activities. B: Targeting/Binding Activity; M: Antimicrobial Activity; G: GROWTH or Phenotype Altering.

[2] = tested on: microorganisms; assay: Morphology, biofilm and growth disrupting peptides (Table 5); type: cell-based; parameters: key: A: Peptide aggregates; B: Less hyphal formation; Clumps; Diffuse clumps and small polyps; F: Diffuse growth; H: Thin; I: Growth inhibition; Microcolony formation; Rippled; Small polyps; Thick; W: Halo formation on top, microlonies on bottom
Source text: In certain embodiments peptides that induce alterations in phenotype or other biological activities can also be used as antimicrobial effector moieties.

Substance | Activities [1] | Organism, effect: C. jeikeium [2] | Organism, effect: M. luteus [2] | Organism, effect: MRSA [2] | Organism, effect: S. epidermidis [2] | Organism, effect: C. albicans ([2]; C. albicans) | Organism, effect: C. jejuni [2] | Organism, effect: E. coli ([2]; E. coli) | Organism, effect: E. faecalis ([2]; E. faecalis) | Organism, effect: S. pneumoniae [2] | Organism, effect: B. subtilis [2] | Organism, effect: P. aeruginosa [2]
PF-030: peptide having multiple activities (MTCHQAPTTTHQSNMA; Peptide with targeting and/or antimicrobial activity) | G B | C. jeikeium (C) | M. luteus (C) | MRSA (R) | S. epidermidis (D) |  |  |  |  |  |  | 
PF-042: peptide having multiple activities (LLLSYFRYTGALLQSLF; Peptide with targeting and/or antimicrobial activity) | G B | C. jeikeium (S) | M. luteus (C) | MRSA (R) | S. epidermidis (D) |  |  |  |  |  |  | 
PF-057: peptide having multiple activities (TMIVISIPRFEEYMKARHKKWM; Peptide with targeting and/or antimicrobial activity) | G B | C. jeikeium (A) | M. luteus (C) | MRSA (M) | S. epidermidis (D) | C. albicans (A) | C. jejuni (D) | E. coli (M) | E. faecalis (A) | S. pneumoniae (R) |  | 
PF-063: peptide having multiple activities (IAAIIVLVLFQKGLLQIFNWILIQLQ; Peptide with targeting and/or antimicrobial activity) | G B | C. jeikeium (D) | M. luteus (R) | MRSA (M) | S. epidermidis (R) |  | C. jejuni (D) |  |  | S. pneumoniae (D) | B. subtilis (C) | P. aeruginosa (A)
PF-067: peptide having multiple activities (DLIVKVHICFVVKTASGYCYLNKREAQAAI; Peptide with targeting and/or antimicrobial activity) | G B | C. jeikeium (D) | M. luteus (R) | MRSA (M) | S. epidermidis (D) |  | C. jejuni (D) |  |  | S. pneumoniae (D) | B. subtilis (C) | P. aeruginosa (A)
PF-076: peptide having multiple activities (chain 1 LYQYELLSKEEYLKCTLIINQRRNEQK; chain 2 LYQYELLSKEEYLKCTLIINQRRNEQK; Peptide with targeting and/or antimicrobial activity) | G B | C. jeikeium (A) | M. luteus (A) | MRSA (R) | S. epidermidis (S) |  |  |  |  |  |  | 
PF-125: peptide having multiple activities (chain 1 YVVGALVILAVAGLIYSMLRKA; chain 2 YVVGALVILAVAGLIYSMLRKA; Peptide with targeting and/or antimicrobial activity) | G B |  | M. luteus (C) |  | S. epidermidis (D) |  |  |  |  |  |  | 
PF-139: peptide having multiple activities (chain 1 ALSKPAIQARTLCRRQDPP; chain 2 ALSKPAIQARTLCRRQDPP; Peptide with targeting and/or antimicrobial activity) | G B | C. jeikeium (R) | M. luteus (C) |  | S. epidermidis (M) |  |  |  |  |  |  | 
